Results: patent US9504652B2 (Druggability Technologies IP Holdco (Jersey) Ltd., priority 2010, dated 2016)
Read-outs that look alike come from different tables or passages of the source.

Tests used:
PAMPA permeability = format: in vitro ADME; conditions: for Papp: PAMPA
Excerpt: The sample containing the reference compound was a suspension of crystals visible by the naked eye, while the other two samples were opalescent colloid solutions. The receiver compartment was phosphate buffered saline with 1% sodium lauryl sulphate and 5% DMSO.

[1] = Comparative dissolution test (wettability and redispersibility) in distillate water; format: physicochemical; conditions: 4.0 mg Aprepitant in 8.0 mL distillate water, stirred 10 minutes
[2] = cited from earlier work
[3] = over 72 hours, single oral 300 mg dose of [14C]-Aprepitant; cited from earlier work
human liver microsomes = conditions: cited from earlier work

In the case of `C[C@@H](O[C@H]1OCCN(Cc2n[nH]c(=O)[nH]2)[C@H]1c1ccc(F)cc1)c1cc(C(F)(F)F)cc(C(F)(F)F)c1` [Aprepitant, 5-[[(2R,3S)-2-[(1R)-1-[3,5-bis(trifluoromethyl)phenyl]ethoxy]-3-(4-fluorophenyl)-4-morpholinyl]methyl]-1,2-dihydro-3H-1,2,4-triazol-3-one], the “ratio of PAMPA permeability for FeSSIF and FaSSIF” value (PAMPA permeability; FeSSIF/FaSSIF) is reported as 10.7, the Papp (PAMPA permeability; redispersed in FaSSIF) is reported as 0.044 ×10⁻⁶ cm/s and the Papp (PAMPA permeability; redispersed in FeSSIF) is reported as 0.471 ×10⁻⁶ cm/s. For the same molecule, the “wettability and redispersibility / dissolution” value [1] was “did not wet and did not dissolve”, the solubility ([2]; acetonitrile) was “slightly soluble” and the solubility ([2]; ethanol) was “sparingly soluble”. For the same molecule, the solubility ([2]; isopropyl acetate) was “sparingly soluble”, the solubility ([2]; water) was “practically insoluble” and the “share of the radioactivity in plasma accounted for by Aprepitant” value [3] was “approximately 24%”. The “CYP enzymes with no metabolism detected” value (human liver microsomes) was “No metabolism by CYP2D6, CYP2C9, or CYP2E1 was detected” and the “metabolizing CYP enzymes” value (human liver microsomes) was “metabolized primarily by CYP3A4 with minor metabolism by CYP1A2 and CYP2C19”.
